According to PubChem BioAssay AID2060506 (Molecular Pharmacology Branch, DTP, NCI, 2025):

Test system: 598228-144-R-J1-PDC complex spheroid viability
Experiment: Anticancer human tumor 598228-144-R-J1-PDC patient-derived serous endometrial adenocarcinoma cell line growth inhibition [GQUAD]
Conditions: for IC50: curve of first compound; for viability, T/C: stronger effect = lower value
Outline: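 Multi-cell-type spheroids of tumor cells with HUVEC and mesenchymal stem cells, treated with drug combinations. Concentrations descend in half-log steps from near clinical Cmax, or from 10 microM where Cmax is unknown; viability read-out.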

[1] = second compound 0.0316 µM, first compound 0.0316 µM
[2] = second compound 0.0316 µM, first compound 0.1 µM
[3] = second compound 0.0316 µM, first compound 0.316 µM
[4] = second compound 0.0316 µM, first compound 1 µM
[5] = second compound 0.0316 µM, first compound 3.16 µM
[6] = second compound 0.0316 µM, first compound 10 µM
[7] = second compound 0.1 µM, first compound 0.0316 µM
[8] = second compound 0.1 µM, first compound 0.1 µM
[9] = second compound 0.1 µM, first compound 0.316 µM
[10] = second compound 0.1 µM, first compound 1 µM
[11] = second compound 0.1 µM, first compound 3.16 µM
[12] = second compound 0.1 µM, first compound 10 µM
[13] = second compound 0.316 µM, first compound 0.0316 µM
[14] = second compound 0.316 µM, first compound 0.1 µM
[15] = second compound 0.316 µM, first compound 0.316 µM
[16] = second compound 0.316 µM, first compound 1 µM
[17] = second compound 0.316 µM, first compound 3.16 µM
[18] = second compound 0.316 µM, first compound 10 µM
[19] = second compound 1 µM, first compound 0.0316 µM
[20] = second compound 1 µM, first compound 0.1 µM
[21] = second compound 1 µM, first compound 0.316 µM
[22] = second compound 1 µM, first compound 1 µM
[23] = second compound 1 µM, first compound 3.16 µM
[24] = second compound 1 µM, first compound 10 µM
[25] = second compound 3.16 µM, first compound 0.0316 µM
[26] = second compound 3.16 µM, first compound 0.1 µM
[27] = second compound 3.16 µM, first compound 0.316 µM
[28] = second compound 3.16 µM, first compound 1 µM
[29] = second compound 3.16 µM, first compound 3.16 µM
[30] = second compound 3.16 µM, first compound 10 µM
[31] = second compound 10 µM, first compound 0.0316 µM
[32] = second compound 10 µM, first compound 0.1 µM
[33] = second compound 10 µM, first compound 0.316 µM
[34] = second compound 10 µM, first compound 1 µM
[35] = second compound 10 µM, first compound 3.16 µM
[36] = second compound 10 µM, first compound 10 µM
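Note: spheroids exposed to the agents for one week before reading.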
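Throughout, for viability, T/C: percent of vehicle DMSO control viability so 100% = untreated growth.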

Question: Which results are given for `COc1cc(C2c3cc4c(cc3C(OC3OC5COC(C)OC5C(O)C3O)C3COC(=O)C23)OCO4)cc(OC)c1O` (stereo unspecified) + Cc1[nH]c2ccc(F)cc2c1-c1nc2c3cccnc3c3ncccc3c2[nH]1?
Answer: IC50 (second compound 0.0316 µM): > 10000 nM; IC50 (second compound 0.1 µM): > 10000 nM; IC50 (second compound 0.316 µM): > 10000 nM; IC50 (second compound 1 µM): 4150 nM; IC50 (second compound 3.16 µM): < 31.6 nM; IC50 (second compound 10 µM): 4490 nM; viability, T/C [1]: 91.8%; viability, T/C [2]: 85.6%; viability, T/C [3]: 87%; viability, T/C [4]: 71%; viability, T/C [5]: 60.4%; viability, T/C [6]: 51.3%; viability, T/C [7]: 92.9%; viability, T/C [8]: 77.5%; viability, T/C [9]: 66.2%; viability, T/C [10]: 71.8%; viability, T/C [11]: 68.7%; viability, T/C [12]: 48.6%; viability, T/C [13]: 119%; viability, T/C [14]: 72%; viability, T/C [15]: 76.7%; viability, T/C [16]: 66%; viability, T/C [17]: 66%; viability, T/C [18]: 47.6%; viability, T/C [19]: 62.6%; viability, T/C [20]: 59.5%; viability, T/C [21]: 58.5%; viability, T/C [22]: 44.7%; viability, T/C [23]: 62%; viability, T/C [24]: 43.1%; viability, T/C [25]: 43.2%; viability, T/C [26]: 42%; viability, T/C [27]: 39.3%; viability, T/C [28]: 46.2%; viability, T/C [29]: 38.2%; viability, T/C [30]: 43.5%; viability, T/C [31]: 54.6%; viability, T/C [32]: 62.9%; viability, T/C [33]: 55.7%; viability, T/C [34]: 47.9%; viability, T/C [35]: 61.9%; viability, T/C [36]: 34.9%

Question: What does the source list for `Cc1[nH]c2ccccc2c1CCNCc1ccc(/C=C/C(=O)NO)cc1` + Cc1[nH]c2ccc(F)cc2c1-c1nc2c3cccnc3c3ncccc3c2[nH]1?
Answer: IC50 (second compound 0.0316 µM): 62.9 nM; IC50 (second compound 0.1 µM): 63 nM; IC50 (second compound 0.316 µM): 58 nM; IC50 (second compound 1 µM): 23.9 nM; IC50 (second compound 3.16 µM): < 0.999 nM; IC50 (second compound 10 µM): 39.1 nM; viability, T/C (second compound 0.0316 µM, first compound 0.000999 µM): 110%; viability, T/C (second compound 0.0316 µM, first compound 0.00316 µM): 115%; viability, T/C (second compound 0.0316 µM, first compound 0.00999 µM): 131%; viability, T/C [1]: 82.5%; viability, T/C (second compound 0.0316 µM, first compound 0.0999 µM): 28%; viability, T/C [3]: 0.83%; viability, T/C (second compound 0.1 µM, first compound 0.000999 µM): 111%; viability, T/C (second compound 0.1 µM, first compound 0.00316 µM): 108%; viability, T/C (second compound 0.1 µM, first compound 0.00999 µM): 103%; viability, T/C [7]: 77.8%; viability, T/C (second compound 0.1 µM, first compound 0.0999 µM): 31.4%; viability, T/C [9]: 1.46%; viability, T/C (second compound 0.316 µM, first compound 0.000999 µM): 107%; viability, T/C (second compound 0.316 µM, first compound 0.00316 µM): 108%; viability, T/C (second compound 0.316 µM, first compound 0.00999 µM): 90.2%; viability, T/C [13]: 73.5%; viability, T/C (second compound 0.316 µM, first compound 0.0999 µM): 30.1%; viability, T/C [15]: 0.7%; viability, T/C (second compound 1 µM, first compound 0.000999 µM): 71.8%; viability, T/C (second compound 1 µM, first compound 0.00316 µM): 58%; viability, T/C (second compound 1 µM, first compound 0.00999 µM): 62.6%; viability, T/C [19]: 47.1%; viability, T/C (second compound 1 µM, first compound 0.0999 µM): 22.4%; viability, T/C [21]: 0.79%; viability, T/C (second compound 3.16 µM, first compound 0.000999 µM): 32.2%; viability, T/C (second compound 3.16 µM, first compound 0.00316 µM): 32.8%; viability, T/C (second compound 3.16 µM, first compound 0.00999 µM): 41.1%; viability, T/C [25]: 32.7%; viability, T/C (second compound 3.16 µM, first compound 0.0999 µM): 25.1%; viability, T/C [27]: 0.97%; viability, T/C (second compound 10 µM, first compound 0.000999 µM): 84.1%; viability, T/C (second compound 10 µM, first compound 0.00316 µM): 64.8%; viability, T/C (second compound 10 µM, first compound 0.00999 µM): 79.1%; viability, T/C [31]: 48.3%; viability, T/C (second compound 10 µM, first compound 0.0999 µM): 33.6%; viability, T/C [33]: 0.53%

Question: `Nc1ccn(C2OC(CO)C(O)C2(F)F)c(=O)n1` (stereo unspecified) + Cc1[nH]c2ccc(F)cc2c1-c1nc2c3cccnc3c3ncccc3c2[nH]1 was tested. Which IC50 (second compound 0.0316 µM) did it give?
Answer: Its IC50 is 439 nM.

Question: What about the IC50 (second compound 0.1 µM) of the same compound?
Answer: Its IC50 is 136 nM.

Question: What about the IC50 (second compound 0.316 µM) of the same compound?
Answer: Its IC50 is 135 nM.

Question: What about the IC50 (second compound 1 µM) of the same compound?
Answer: Its IC50 is 44.8 nM.

Question: And the IC50 (second compound 3.16 µM)?
Answer: Its IC50 is less than 31.6 nM.

Question: And the IC50 (second compound 10 µM)?
Answer: The IC50 was less than 31.6 nM.

Question: What about the viability, T/C [1] of the same compound?
Answer: Its viability, T/C is 64.6%.

Question: What about the viability, T/C [2] of the same compound?
Answer: Its viability, T/C is 54.6%.

Question: What about the viability, T/C [3] of the same compound?
Answer: Its viability, T/C is 52.1%.

Question: And the viability, T/C [4]?
Answer: Its viability, T/C is 47.9%.

Question: What about the viability, T/C [5] of the same compound?
Answer: Its viability, T/C is 43.9%.

Question: What about the viability, T/C [6] of the same compound?
Answer: Its viability, T/C is 41%.

Question: And the viability, T/C [7]?
Answer: Its viability, T/C is 54.8%.

Question: And the viability, T/C [8]?
Answer: The viability, T/C was 57.5%.

Question: What about the viability, T/C [9] of the same compound?
Answer: The viability, T/C was 45.3%.

Question: What about the viability, T/C [10] of the same compound?
Answer: Its viability, T/C is 40%.

Question: And the viability, T/C [11]?
Answer: The viability, T/C was 39.9%.

Question: And the viability, T/C [12]?
Answer: Its viability, T/C is 44.9%.

Question: And the viability, T/C [13]?
Answer: The viability, T/C was 60.7%.

Question: And the viability, T/C [14]?
Answer: Its viability, T/C is 52.3%.

Question: And the viability, T/C [15]?
Answer: The viability, T/C was 48.3%.

Question: And the viability, T/C [16]?
Answer: The viability, T/C was 39.9%.

Question: What about the viability, T/C [17] of the same compound?
Answer: The viability, T/C was 43.6%.

Question: And the viability, T/C [18]?
Answer: The viability, T/C was 49.7%.

Question: What about the viability, T/C [19] of the same compound?
Answer: Its viability, T/C is 53.2%.

Question: And the viability, T/C [20]?
Answer: Its viability, T/C is 49.1%.

Question: And the viability, T/C [21]?
Answer: Its viability, T/C is 46.2%.

Question: What about the viability, T/C [22] of the same compound?
Answer: Its viability, T/C is 36.3%.

Question: What about the viability, T/C [23] of the same compound?
Answer: Its viability, T/C is 50.4%.

Question: What about the viability, T/C [24] of the same compound?
Answer: The viability, T/C was 41.9%.

Question: And the viability, T/C [25]?
Answer: The viability, T/C was 36.3%.

Question: And the viability, T/C [26]?
Answer: The viability, T/C was 36.7%.

Question: And the viability, T/C [27]?
Answer: Its viability, T/C is 38.5%.

Question: And the viability, T/C [28]?
Answer: Its viability, T/C is 37.9%.

Question: And the viability, T/C [29]?
Answer: The viability, T/C was 32.4%.

Question: And the viability, T/C [30]?
Answer: The viability, T/C was 44.5%.

Question: What about the viability, T/C [31] of the same compound?
Answer: The viability, T/C was 51.6%.

Question: And the viability, T/C [32]?
Answer: The viability, T/C was 37.6%.

Question: And the viability, T/C [33]?
Answer: Its viability, T/C is 37.8%.

Question: What about the viability, T/C [34] of the same compound?
Answer: The viability, T/C was 47.5%.

Question: And the viability, T/C [35]?
Answer: The viability, T/C was 35.7%.

Question: And the viability, T/C [36]?
Answer: Its viability, T/C is 32%.
